{
  "source": "patent US9284272B2",
  "about": "“Inhibitors of histone methyltransferase G9a” (AbbVie Inc., priority 2014, dated 2016)",
  "key": {"[1]": {"assay": "Cytotoxicity, CellTiter Glo", "assay_type": "cell-based", "settings": "human, IMR-32 cells, 12-day proliferation, neural crest derived lines"}, "[2]": {"assay": "Cytotoxicity, CellTiter Glo", "assay_type": "cell-based", "settings": "human, LNCap cells, 5-day proliferation"}, "H3K9me2": {"system": "H3K9me2", "assay": "Cellular immunostaining (In-Cell Western), H3K9Me2 antibody immunofluorescence in PC3 cells", "assay_type": "cell-based, human", "settings": "for H3K9me2 % inhibition, single well of triplicate / inhibition at 0.03 µM / inhibition at 0.1 µM / inhibition at 0.3 µM / inhibition at 1 µM / inhibition at 3 µM: 72 hours; for inhibition at 0.03 µM / inhibition at 0.1 µM / inhibition at 0.3 µM / inhibition at 1 µM / inhibition at 3 µM: Homo sapiens, PC-3, 72 h", "protocol": "For comparison, the known G9a inhibitor UNC0638 (see structure in FIG. 1) was evaluated in this study concurrently.\nHuman PC3 cells (ATCC, Manassas, Va.) were grown in RPMI+10% Fetal Bovine Serum and plated at 5,000 cells per well in a 96-well plate. The following day compounds and DMSO controls were added in triplicate at the indicated concentrations. Cells were fixed following incubation at 37° C. for 72 hours with 10% formaldehyde and then permeabilized with 0.1% Triton X-100. Cells were then washed with PBS and blocked with 0.1% BSA/PBS solution. Mouse anti-H3K9me2 (1:200, AbCam #1220, Cambridge, Mass.) and rabbit anti-Histone H3 (1:500, Cell Signaling Technology #4499, Danvers, Mass.) primary antibodies in 0.3% BSA were then added together to each well and incubated overnight at 4° C. The following day cells were washed in PBS-T (PBS with 0.1% Tween) followed by addition of anti-mouse (IR800) and anti-rabbit (IR700) secondary antibodies (LI-COR Biosciences, Lincoln, Nebr.) and incubated for one hour at room temperature. Cells were then washed with PBS-T followed by PBS and liquid was removed from all wells. The plate was scanned using both the 700 nm (anti-rabbit detection) and 800 nm (anti-mouse detection) channels on the Odyssey Imaging System (LI-COR Biosciences, Lincoln, Nebr.). Data was quantified using the LI-COR imaging suite and graphed as % inhibition H3K9me2/total H3/well compared to DMSO control wells. Wells treated in triplicate were averaged for each indicated concentration and error bars represent the standard deviation (n=3)."}, "[3]": {"assay": "Cytotoxicity, CellTiter Glo", "assay_type": "cell-based", "settings": "human, KMS12 cells, 5-day proliferation"}, "in vitro": {"assay": "in vitro", "assay_type": "cell-based", "settings": "PH-1; 7-day proliferation, neural crest derived lines; read-out: IC50 cytotoxicity"}, "[4]": {"assay": "Cytotoxicity, CellTiter Glo", "assay_type": "cell-based", "settings": "human, G-401 cells, 7-day proliferation, neural crest derived lines"}, "[5]": {"assay": "Cytotoxicity, CellTiter Glo", "assay_type": "cell-based", "settings": "human, K562 cells, 5-day proliferation"}, "[6]": {"assay": "Cytotoxicity, CellTiter Glo", "assay_type": "cell-based", "settings": "human, DU145 cells, 5-day proliferation"}, "[7]": {"assay": "Cytotoxicity, CellTiter Glo", "assay_type": "cell-based", "settings": "human, H929 cells, 5-day proliferation"}, "[8]": {"assay": "Cytotoxicity, CellTiter Glo", "assay_type": "cell-based", "settings": "human, CAPO-ES1 cells, 7-day proliferation, neural crest derived lines"}, "[9]": {"assay": "Cytotoxicity, CellTiter Glo", "assay_type": "cell-based", "settings": "human, Kasume-1 cells, 5-day proliferation"}, "[10]": {"assay": "Cytotoxicity, CellTiter Glo", "assay_type": "cell-based", "settings": "A-201 cells, 12-day proliferation, neural crest derived lines"}, "[11]": {"system": "human peripheral blood mononucleated cells (PBMCs)", "assay": "Viability of PBMCs (Caspase-Glo 3/7, CellTiter Glo)", "assay_type": "cell-based", "settings": "0-10 uM, 48 h", "protocol": "Following treatment, Caspase 3/7 activity (i.e., a marker of apoptosis) was assessed by the Caspase-Glo 3/7 assay system (FIG. 7A), and cell viability was assessed by CellTiter Glo assay (FIG. 7B)."}, "[12]": {"assay": "Cytotoxicity, CellTiter Glo", "assay_type": "cell-based", "settings": "human, MV4;11 cells, 5-day proliferation"}, "[13]": {"assay": "Cytotoxicity, CellTiter Glo", "assay_type": "cell-based", "settings": "human, SK-N-MC cells, 7-day proliferation, neural crest derived lines"}, "[14]": {"assay": "Cytotoxicity, CellTiter Glo", "assay_type": "cell-based", "settings": "human, L-363 cells, 5-day proliferation"}, "[15]": {"assay": "Cytotoxicity, CellTiter Glo", "assay_type": "cell-based", "settings": "human, LN229 cells, 5-day proliferation"}, "[16]": {"assay": "Cytotoxicity, CellTiter Glo", "assay_type": "cell-based", "settings": "human, OPM2 cells, 5-day proliferation"}, "[17]": {"assay": "Cytotoxicity, CellTiter Glo", "assay_type": "cell-based", "settings": "human, HL-60 cells, 5-day proliferation"}, "[18]": {"assay": "Cytotoxicity, CellTiter Glo", "assay_type": "cell-based", "settings": "human, TC-71 cells, 7-day proliferation, neural crest derived lines"}, "[19]": {"assay": "Cytotoxicity, CellTiter Glo", "assay_type": "cell-based", "settings": "human, MHH-65-1 cells, 7-day proliferation, neural crest derived lines"}, "[20]": {"assay": "Cytotoxicity, CellTiter Glo", "assay_type": "cell-based", "settings": "human, KMS11 cells, 5-day proliferation"}, "[21]": {"assay": "Cytotoxicity, CellTiter Glo", "assay_type": "cell-based", "settings": "human, RS4;11 cells, 5-day proliferation"}, "[22]": {"assay": "Cytotoxicity, CellTiter Glo", "assay_type": "cell-based", "settings": "human, PA-1 cells, 7-day proliferation, neural crest derived lines"}, "[23]": {"assay": "Cytotoxicity, CellTiter Glo", "assay_type": "cell-based", "settings": "human, ZR7350 cells, 7-day proliferation, neural crest derived lines"}, "[24]": {"assay": "Cytotoxicity, CellTiter Glo", "assay_type": "cell-based", "settings": "human, US2OS cells, 7-day proliferation, neural crest derived lines"}, "[25]": {"assay": "Cytotoxicity, CellTiter Glo", "assay_type": "cell-based", "settings": "human, SKBR3 cells, 5-day proliferation"}, "[26]": {"assay": "Cytotoxicity, CellTiter Glo", "assay_type": "cell-based", "settings": "human, RPMI8226 cells, 5-day proliferation"}, "[27]": {"assay": "Cytotoxicity, CellTiter Glo", "assay_type": "cell-based", "settings": "human, 22RV1 cells, 5-day proliferation"}, "[28]": {"assay": "Cytotoxicity, CellTiter Glo", "assay_type": "cell-based", "settings": "human, DaoY cells, 7-day proliferation, neural crest derived lines"}, "[29]": {"assay": "Cytotoxicity, CellTiter Glo", "assay_type": "cell-based", "settings": "human, THP-1 cells, 5-day proliferation"}, "[30]": {"assay": "Cytotoxicity, CellTiter Glo", "assay_type": "cell-based", "settings": "human, Calu6 cells, 5-day proliferation"}},
  "note": "Several values for one entry are separate records, joined by “and”; a condition that tells them apart may be missing. Equal values may be shown once. Read-outs that look alike come from different tables or passages of the source.",
  "data": [
    {"compound": "COc1cc2c(NC3CCN(C(C)C)CC3)nc(C3CCCCC3)nc2cc1OCCCN1CCCC1", "note": "[UNC0638, reference compound]", "values": [
      {"measurement": "IC50 at 12 day", "setting": "[1]", "value": 100, "unit": "nM"},
      {"measurement": "IC50 at 5 day", "setting": "[2]", "value": 300, "unit": "nM"},
      {"measurement": "reduction of cellular levels of H3K9Me2", "setting": "H3K9me2; 3 μM", "value": "~50", "unit": "%"},
      {"measurement": "H3K9me2 % inhibition, single well of triplicate", "setting": "H3K9me2; 0.03 uM", "value": "17.8107% and 15.8006%"},
      {"measurement": "H3K9me2 % inhibition, single well of triplicate", "setting": "H3K9me2; 0.1 uM", "value": "27.68% and 25.03%"},
      {"measurement": "H3K9me2 % inhibition, single well of triplicate", "setting": "H3K9me2; 0.3 uM", "value": "41.05% and 40.37%"},
      {"measurement": "H3K9me2 % inhibition, single well of triplicate", "setting": "H3K9me2; 1 uM", "value": "43.21% and 47.35%"},
      {"measurement": "H3K9me2 % inhibition, single well of triplicate", "setting": "H3K9me2; 3 uM", "value": "48.22% and 49.38%"},
      {"measurement": "inhibition at 0.03 µM", "setting": "H3K9me2; 0.03 uM, n=3, read-out: H3K9me2 % inhibition, average", "value": 14.6, "unit": "%"},
      {"measurement": "inhibition at 0.03 µM", "setting": "H3K9me2; 0.03 uM, read-out: H3K9me2 % inhibition, single well of triplicate", "value": 10, "unit": "%"},
      {"measurement": "inhibition at 0.1 µM", "setting": "H3K9me2; 0.1 uM, n=3, read-out: H3K9me2 % inhibition, average", "value": 25.8, "unit": "%"},
      {"measurement": "inhibition at 0.1 µM", "setting": "H3K9me2; 0.1 uM, read-out: H3K9me2 % inhibition, single well of triplicate", "value": 24.6, "unit": "%"},
      {"measurement": "inhibition at 0.3 µM", "setting": "H3K9me2; 0.3 uM, n=3, read-out: H3K9me2 % inhibition, average", "value": 40.8, "unit": "%"},
      {"measurement": "inhibition at 0.3 µM", "setting": "H3K9me2; 0.3 uM, read-out: H3K9me2 % inhibition, single well of triplicate", "value": 41.1, "unit": "%"},
      {"measurement": "inhibition at 1 µM", "setting": "H3K9me2; 1 uM, n=3, read-out: H3K9me2 % inhibition, average", "value": 45.2, "unit": "%"},
      {"measurement": "inhibition at 1 µM", "setting": "H3K9me2; 1 uM, read-out: H3K9me2 % inhibition, single well of triplicate", "value": 44.9, "unit": "%"},
      {"measurement": "inhibition at 3 µM", "setting": "H3K9me2; 3 uM, n=3, read-out: H3K9me2 % inhibition, average", "value": 48.5, "unit": "%"},
      {"measurement": "inhibition at 3 µM", "setting": "H3K9me2; 3 uM, read-out: H3K9me2 % inhibition, single well of triplicate", "value": 47.8, "unit": "%"},
      {"measurement": "cell viability as measured by total histone H3", "setting": "H3K9me2; versus no treatment", "value": "No difference in cell viability"},
      {"measurement": "IC50 at 5 day", "setting": "[3]", "value": 4400, "unit": "nM"},
      {"measurement": "IC50 at 7 day", "setting": "in vitro", "value": 4400, "unit": "nM"},
      {"measurement": "IC50 at 7 day", "setting": "[4]", "value": 400, "unit": "nM"},
      {"measurement": "IC50 at 5 day", "setting": "[5]", "value": 5300, "unit": "nM"},
      {"measurement": "IC50 at 5 day", "setting": "[6]", "value": 700, "unit": "nM"},
      {"measurement": "IC50 at 5 day", "setting": "[7]", "value": 4600, "unit": "nM"},
      {"measurement": "IC50 at 7 day", "setting": "[8]", "value": 1200, "unit": "nM"},
      {"measurement": "IC50 at 5 day", "setting": "[9]", "value": 1100, "unit": "nM"},
      {"measurement": "IC50 at 12 day", "setting": "[10]", "value": 600, "unit": "nM"},
      {"measurement": "effect on PBMC viability (Caspase 3/7 activity and CellTiter Glo)", "setting": "[11]", "value": "did at higher concentrations"},
      {"measurement": "IC50 at 5 day", "setting": "[12]", "value": 1700, "unit": "nM"},
      {"measurement": "IC50 at 7 day", "setting": "[13]", "value": 200, "unit": "nM"},
      {"measurement": "IC50 at 5 day", "setting": "[14]", "value": 3900, "unit": "nM"},
      {"measurement": "IC50 at 5 day", "setting": "[15]", "value": 500, "unit": "nM"},
      {"measurement": "IC50 at 5 day", "setting": "[16]", "value": 5600, "unit": "nM"},
      {"measurement": "IC50 at 5 day", "setting": "[17]", "value": 6500, "unit": "nM"},
      {"measurement": "IC50 at 7 day", "setting": "[18]", "value": 600, "unit": "nM"},
      {"measurement": "IC50 at 7 day", "setting": "[19]", "value": 1900, "unit": "nM"},
      {"measurement": "IC50 at 5 day", "setting": "[20]", "value": 4000, "unit": "nM"},
      {"measurement": "IC50 at 5 day", "setting": "[21]", "value": 3100, "unit": "nM"},
      {"measurement": "IC50 at 7 day", "setting": "[22]", "value": 200, "unit": "nM"},
      {"measurement": "IC50 at 7 day", "setting": "[23]", "value": 1200, "unit": "nM"},
      {"measurement": "IC50 at 7 day", "setting": "[24]", "value": 500, "unit": "nM"},
      {"measurement": "IC50 at 5 day", "setting": "[25]", "value": 600, "unit": "nM"},
      {"measurement": "IC50 at 5 day", "setting": "[26]", "value": 5100, "unit": "nM"},
      {"measurement": "IC50 at 5 day", "setting": "[27]", "value": 200, "unit": "nM"},
      {"measurement": "IC50 at 7 day", "setting": "[28]", "value": 100, "unit": "nM"},
      {"measurement": "IC50 at 5 day", "setting": "[29]", "value": 4900, "unit": "nM"},
      {"measurement": "IC50 at 5 day", "setting": "[30]", "value": 500, "unit": "nM"}
    ]}
  ]
}
